Assay results as given in patent US20230293521A1, “METHODS FOR SCREENING NOVEL CORONAVIRUS ANTIVIRALS AND METHODS OF USING ANTIVIRALS FOR THE TREATMENT OF CORONAVIRUS INFECTIONS” (priority 2020, published 2023).
Where two headings read alike, the source gives them in different places.

Key:
SARS-CoV-2 [1] = test: microbe, parasite or virus in culture; type: cell-based
SARS-CoV-2 [2] = test: Time of addition studies, impedance assay in VeroE6 cells; type: cell-based; settings: for inhibition of SARS-CoV-2 replication, single treatment 1 hour prior to infection, compound removed prior to infection: VPS34 inhibitors at 5 µM; for inhibition of SARS-CoV-2 replication, compound added up to 4 hpi: dosing at 2 hpi or 4 hpi, compound maintained
[3] = system: SARS-CoV-2 replication centers; test: Confocal immunofluorescence of SARS-CoV-2 N and dsRNA replication centers in Calu-3 cells; type: cell-based; settings: for distribution of SARS-CoV-2 N and dsRNA (replication center formation): Calu-3, pre-treated, MOI 3, fixed at 24 h.p.i.; for IC90: read-out: approximate IC90 (concentration used for pre-treatment)
[4] = system: SARS-CoV-2 genomic RNA, subgenomic N RNA and NSP14 RNA; type: cell-based; settings: for viral RNA levels: Calu-3, both MOI 0.01 and 1; for reduction in RNA synthesis compared with reduction in viral titers: Calu-3, 24 hpi
Vero E6 cells = settings: for cytotoxicity (rapid decrease in resistance between 1 and 20 hpi): at 50 µM and 16.67 µM
VPS34 = type: cell-based; settings: Huh7, 24 hours treatment; VPS34-IN1 2 µM, PIK-III, SAR405, Compound 19 5 µM, Orlistat 200 µM
SARS-CoV-2 [5] = test: microbe, parasite or virus in culture; type: cell-based; settings: for IC50: Calu-3, pre-treated 1 hour, MOI 0.01, supernatants at 48 hpi
[6] = Severe acute respiratory syndrome coronavirus 2, Calu-3

SMILES: Cc1nc(NC(=O)N2CCC[C@H]2C(N)=O)sc1-c1ccnc(C(C)(C)C(F)(F)F)c1 [BYL719]
- decrease in viral titers (SARS-CoV-2 [1]): 1 log
- inhibition of SARS-CoV-2 replication (SARS-CoV-2 [1]): little inhibition was detected

SMILES: C[C@@H]1COCCN1c1cc(=O)n2c(n1)N(Cc1cncc(Cl)c1)[C@H](C(F)(F)F)CC2 [SAR405]
- IC50 (SARS-CoV-2 [1]; [6]): 0.376 µM

SMILES: CCC/C=C/C/C=C/C=C/C=N/NN=O [Triacsin C]
- inhibition of SARS-CoV-2 replication, single treatment 1 hour prior to infection, compound removed prior to infection (SARS-CoV-2 [2]): minimal efficacy
- inhibition of SARS-CoV-2 replication, compound added up to 4 hpi (SARS-CoV-2 [2]): remained inhibitory
- IC50 (SARS-CoV-2 [1]): 0.04 µM
- distribution of SARS-CoV-2 N and dsRNA (replication center formation) [3]: fewer but larger foci positive for both markers
- IC90 ([3]; Calu-3): ~50 µM
- viral RNA levels [4]: reduced RNA levels
- early cytotoxic effects (1-20 hours post-treatment) (Vero E6 cells; even at the highest concentrations of 50 µM and 500 µM, respectively, Vero E6): neither Orlistat nor Triacsin C induced early cytotoxic effects

SMILES: CCCCCCCCCCC[C@@H](C[C@@H]1OC(=O)[C@H]1CCCCCC)OC(=O)[C@H](CC(C)C)NC=O [Orlistat]
- inhibition of SARS-CoV-2 replication, single treatment 1 hour prior to infection, compound removed prior to infection (SARS-CoV-2 [2]): minimal efficacy
- inhibition of SARS-CoV-2 replication, compound added up to 4 hpi (SARS-CoV-2 [2]): remained inhibitory
- IC50 (SARS-CoV-2 [1]; [6]): 21.2 µM
- effect on GFP-2xFYVE localization to endosomes (VPS34): did not affect GFP-2xFYVE localization
- distribution of SARS-CoV-2 N and dsRNA (replication center formation) [3]: loss of these distinct puncta and dispersion of dsRNA and SARS-CoV-2 N
- IC90 [3, 6]: ~500 µM
- viral RNA levels [4]: reduced RNA levels
- early cytotoxic effects (1-20 hours post-treatment) (Vero E6 cells): neither Orlistat nor Triacsin C induced early cytotoxic effects

SMILES: COc1ccc(CN2CCNCC2)c(OC)c1OC [Trimetazidine]
- inhibition of SARS-CoV-2 (SARS-CoV-2 [5]; Calu-3, MOI 0.01, 48 hpi): Neither compound showed any inhibition

SMILES: Nc1ncc(-c2ccnc(Nc3ccncc3)n2)c(CC2CC2)n1 [PIK-III]
- inhibition of SARS-CoV-2 replication, single treatment 1 hour prior to infection, compound removed prior to infection (SARS-CoV-2 [2]): inhibited SARS-CoV-2 replication
- inhibition of SARS-CoV-2 replication, compound added up to 4 hpi (SARS-CoV-2 [2]): inhibition could be observed
- IC50 (SARS-CoV-2 [1]; [6]): 0.12 µM
- IC90 [3, 6]: ~5 µM
- toxicity at the remaining concentrations (Vero E6 cells): no toxicity was observed
- cytotoxicity (rapid decrease in resistance between 1 and 20 hpi) (Vero E6 cells; Vero E6): induced rapid cytotoxicity

SMILES: O=C(Nc1ccccc1)Nc1ccc(-c2ccc(C(=O)[C@@H]3CCC[C@H]3C(=O)O)cc2)cc1 [A922500]
- IC50 (SARS-CoV-2 [5]): 4.02 µM
- distribution of SARS-CoV-2 N and dsRNA (replication center formation) [3]: loss of these distinct puncta and dispersion of dsRNA and SARS-CoV-2 N
- reduction in RNA synthesis compared with reduction in viral titers [4]: significantly less substantial than the reduction in viral titers

SMILES: C=C1C(=O)O[C@H](CCCCCCCC)[C@H]1C(=O)O [C75, tetrahydro-4-methylene-2R-octyl-5-oxo-3S-furancarboxylic acid]
- IC50 (SARS-CoV-2 [5]): 22.8 µM

SMILES: CCOC(=O)[C@@]1(CCCCCCOc2ccc(Cl)cc2)CO1 [Etomoxir]
- inhibition of SARS-CoV-2 (SARS-CoV-2 [5]; Calu-3, MOI 0.01, 48 hpi): Neither compound showed any inhibition

SMILES: CCCCCCCCCCCCCCC(Br)C(=O)O (stereo not drawn) [2-bromopalmitate]
- concentrations at which infectious virus production was inhibited (SARS-CoV-2 [5]; Calu-3, MOI 0.01, 48 hpi): greater than 10 µM
- IC50 (SARS-CoV-2 [5]): 23 µM
- distribution of SARS-CoV-2 N and dsRNA (replication center formation) [3]: fewer but larger foci positive for both markers
- viral RNA levels [4]: reduced RNA levels

SMILES: CCCCCCCCCCCCCCOc1ccc(C(=O)O)o1 [TOFA, 5-(Tetradecyloxy)-2-furoic acid]
- IC50 (SARS-CoV-2 [5]; Severe acute respiratory syndrome coronavirus 2): 1.34 µM
- distribution of SARS-CoV-2 N and dsRNA (replication center formation) [3]: loss of these distinct puncta and dispersion of dsRNA and SARS-CoV-2 N
- reduction in RNA synthesis compared with reduction in viral titers [4]: significantly less substantial than the reduction in viral titers

SMILES: CC(C)(O)CNc1ncc(-c2ccnc(Nc3ccncc3)n2)c(CC2CC2)n1 [VPS34-IN1]
- inhibition of SARS-CoV-2 replication, single treatment 1 hour prior to infection, compound removed prior to infection (SARS-CoV-2 [2]): inhibited SARS-CoV-2 replication
- inhibition of SARS-CoV-2 replication, compound added up to 4 hpi (SARS-CoV-2 [2]): inhibition could be observed
- IC50 (SARS-CoV-2 [1]; [6]): 0.55 µM
- distribution of SARS-CoV-2 N and dsRNA (replication center formation) [3]: loss of these distinct puncta and dispersion of dsRNA and SARS-CoV-2 N
- IC90 [3, 6]: ~5 µM
- viral RNA levels [4]: reduced RNA levels
- toxicity at the remaining concentrations (Vero E6 cells): no toxicity was observed
- cytotoxicity (rapid decrease in resistance between 1 and 20 hpi) (Vero E6 cells; Vero E6): induced rapid cytotoxicity
